{
  "source": "patent US20090118135A1",
  "about": "“METHODS AND COMPOUNDS FOR REGULATING APOPTOSIS” (The Burnham Institute, priority 2007, published 2009)",
  "key": {"GST-Bfl-1": {"target": "T1, GST-Bfl-1 (Homo sapiens, UniProt Q16548)", "T1 construct": "lacking their C-terminal transmembrane domains (about the last 20 amino acids) (“ΔTM”); made in house; host or cells: XL-1 Blue E. coli, pGEX 4T-1", "T1 sequence (Q16548 1-155 limits assumed)": "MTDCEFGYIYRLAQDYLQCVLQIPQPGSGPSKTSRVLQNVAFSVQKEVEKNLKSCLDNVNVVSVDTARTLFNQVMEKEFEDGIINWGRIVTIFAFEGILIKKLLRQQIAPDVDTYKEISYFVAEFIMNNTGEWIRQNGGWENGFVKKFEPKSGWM", "assay": "FITC-TR3-9-r8 direct binding fluorescence polarization assay, Bfl-1", "conditions": "FIG. 2B; result in words"}, "GST-Bcl-W": {"target": "T2, GST-Bcl-W (Homo sapiens, UniProt Q92843)", "T2 construct": "GST-fusion proteins containing ΔTM versions of Bcl-2, Bcl-XL, Bfl-1, Mcl-1, Bcl-W, and Bcl-B; made in house", "T2 sequence (Q92843 1-173 limits assumed)": "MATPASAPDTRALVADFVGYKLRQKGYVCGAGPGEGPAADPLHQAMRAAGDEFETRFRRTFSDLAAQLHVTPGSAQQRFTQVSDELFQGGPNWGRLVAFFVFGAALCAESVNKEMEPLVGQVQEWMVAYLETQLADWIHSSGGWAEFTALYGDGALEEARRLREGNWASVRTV", "assay": "FITC-TR3-9-r8 direct binding fluorescence polarization assay, Bcl-W", "conditions": "FIG. 2B; result in words"}, "GST-Bcl-2": {"target": "GST-Bcl-2 (Homo sapiens, UniProt P10415)", "sequence (P10415 1-218 limits assumed)": "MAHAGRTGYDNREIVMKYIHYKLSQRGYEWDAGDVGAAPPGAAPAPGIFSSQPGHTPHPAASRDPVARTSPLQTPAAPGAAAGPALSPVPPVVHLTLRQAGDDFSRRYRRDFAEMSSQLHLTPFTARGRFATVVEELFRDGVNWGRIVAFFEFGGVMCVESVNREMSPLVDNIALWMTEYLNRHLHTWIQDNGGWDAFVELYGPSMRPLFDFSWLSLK", "assay": "FITC-TR3-9-r8 direct binding fluorescence polarization assay, Bcl-2", "set-up": "their C-terminal transmembrane domains (˜20 amino acids) were deleted to enhance protein solubility; made in house; host or cells: E. coli (BL21 Star (DE3); XL-1 Blue), pGEX-4T-1", "conditions": "FIG. 2A; result in words"}, "GST-Bcl-XL": {"target": "T3, GST-Bcl-XL (Homo sapiens, UniProt Q07817)", "T3 construct": "lacking their C-terminal transmembrane domains (about the last 20 amino acids) (“ΔTM”); made in house; host or cells: XL-1 Blue E. coli, pGEX 4T-1", "T3 sequence (Q07817 1-212 limits assumed)": "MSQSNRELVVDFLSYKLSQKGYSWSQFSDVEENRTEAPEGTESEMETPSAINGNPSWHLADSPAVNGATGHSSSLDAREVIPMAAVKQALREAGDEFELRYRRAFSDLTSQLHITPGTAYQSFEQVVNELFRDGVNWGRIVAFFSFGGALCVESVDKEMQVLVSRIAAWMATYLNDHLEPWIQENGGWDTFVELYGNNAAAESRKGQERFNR", "assay": "FITC-TR3-9-r8 direct binding fluorescence polarization assay, Bcl-XL", "conditions": "FIG. 2A; result in words"}, "GST-Bcl-B": {"target": "T4, GST-Bcl-B (Homo sapiens, UniProt Q9HD36)", "T4 sequence (Q9HD36 1-182 limits assumed)": "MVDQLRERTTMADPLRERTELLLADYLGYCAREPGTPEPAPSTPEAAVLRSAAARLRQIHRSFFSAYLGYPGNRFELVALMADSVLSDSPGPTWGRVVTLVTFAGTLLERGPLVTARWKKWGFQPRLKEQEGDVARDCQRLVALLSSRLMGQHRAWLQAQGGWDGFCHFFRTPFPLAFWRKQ", "assay": "FITC-TR3-r8 direct binding fluorescence polarization assay, Bcl-B", "set-up": "their C-terminal transmembrane domains (˜20 amino acids) were deleted to enhance protein solubility; made in house; host or cells: E. coli (BL21 Star (DE3); XL-1 Blue), pGEX-4T-1", "conditions": "FIG. 2A; result in words"}},
  "data": [
    {"molecule": "CC(C)C[C@H](NC(=O)[C@H](CC(C)C)NC(=O)[C@H](CO)NC(=O)[C@H](Cc1c[nH]cn1)NC(=O)[C@H](CC(C)C)NC(=O)[C@H](CO)NC(=O)[C@H](CCCNC(=N)N)NC(=O)[C@H](CO)NC(=O)[C@H](Cc1ccccc1)NC(=O)CCCCCNC(=S)Nc1ccc2c(c1)C(=O)OC21c2ccc(O)cc2Oc2cc(O)ccc21)C(=O)NCC(=O)NCCCCCC(=O)N[C@H](CCCNC(=N)N)C(=O)N[C@H](CCCNC(=N)N)C(=O)N[C@H](CCCNC(=N)N)C(=O)N[C@H](CCCNC(=N)N)C(=O)N[C@H](CCCNC(=N)N)C(=O)N[C@H](CCCNC(=N)N)C(=O)N[C@H](CCCNC(=N)N)C(=O)N[C@H](CCCNC(=N)N)C(N)=O", "note": "[FITC-TR3-9-r8]", "values": [
      {"measurement": "binding to GST-Bfl-1", "setting": "GST-Bfl-1", "value": "Binding to GST-Bfl-1"},
      {"measurement": "binding to GST-Bcl-W", "setting": "GST-Bcl-W", "value": "but not GST-Bcl-W"},
      {"measurement": "binding to GST-Bcl-2", "setting": "GST-Bcl-2", "value": "Binding to GST-Bcl-2"},
      {"measurement": "binding to GST-Bcl-XL", "setting": "GST-Bcl-XL", "value": "but not GST-Bcl-XL"},
      {"measurement": "binding to GST-Bcl-B", "setting": "GST-Bcl-B", "value": "Binding to GST-Bcl-2 and GST-Bcl-B"}
    ]}
  ]
}
